Data set [1] is described as follows: Example 5: pharmacokinetics. The format is in vivo, human. The conditions noted are these: subjects other than two. As for the experimental part:
Fifty-two Japanese patients with hyperlipidemia (LDL-C between 140 and 220 mg/dL; TG≦400 mg/dL) participated in the study. […] One group received a fixed dose of 2 mg per tablet through the entire study. The other group received escalating doses of 0.5 mg (weeks 1-4), 1 mg (weeks 5-8), and 2 mg (weeks 9-12). For the efficacy analysis, 50 subjects were observed (25 in the fixed-dose group and 25 in the dose escalation group).
The objective of this study was preliminary evaluation of the efficacy (based on serum lipid levels), safety, and pharmacokinetics of the compound of formula (I) administered orally twice daily after breakfast and supper for 12 weeks as a fixed dose (4 mg/day) or escalating dose (1 mg/day, 2 mg/day and 4 mg/day) regimen in patients with hyperlipidemia.

A short description of data set [2]: Example 9: caloric/food intake and appetite. The data set is classed as in vivo, human. The conditions noted are these: 3.5 mg BID, Day 10/11. As for the experimental part:
The study enrolled 16 obese male subjects (18-65 years of age (inclusive), with a body mass index (BMI) >30.0 kg/m^2 and <40.0 kg/m^2) who participated in two treatment periods. During Period 1, 8 subjects were randomized to receive 3.5 mg of the compound of formula (I), and 8 subjects were randomized to receive placebo. The compound of formula (I) or placebo was administered twice daily (BID), 30 minutes after the start of breakfast and dinner, for 10 days. All subjects were discharged from the clinic at the end of Period 1 for a 9±2 day discharge period. Subjects then returned for treatment during Period 2, in which (i) the group previously receiving the compound of formula (I) now received placebo, and (ii) the group previously receiving placebo now received the compound of formula (I), in accordance with the protocol described above.
A secondary objective of this study was to examine the effects on caloric/food intake and appetite. Therefore, other secondary PD endpoints in this study included caloric intake and meal weight consumed on Day 10 of each period, as well as visual analog scale (VAS) assessments of hunger, prospective consumption, and fullness on Day 10/11 of each period. VAS assessments of thirst and nausea on Day 10/11 of each period were part of the exploratory analysis.

A short description of data set [3]: Example 7: weight loss and tolerability in obese subjects. The settings on record: for mean changes from baseline in weight: 2 weeks.
Procedure: This example involved a clinical study of the compound of formula (I), which was a randomized, double-blind, placebo-controlled, ascending dose study to evaluate the safety, tolerability and pharmacokinetics/pharmacodynamics of the compound of formula (I) tablets administered twice daily for two weeks in obese subjects.
The subjects were separated into four arms of nine (one with ten) test subjects (which were administered the compound of formula (I)) and three placebo subjects.
The nature of data set [4]: Example 3: repeated dose study of tablets 1 or 2 mg BID, safety.
Procedure: The subjects were divided into two dosing groups and within each dosing group, the subjects were divided as follows: 6 subjects received the compound of formula (I) and 3 subjects received placebo.
For the determination of plasma concentrations of the compound of formula (I) and metabolite M1 in this study, the bioanalytical method achieved a sensitivity (LLOQ) of 0.3 ng/mL. Adverse event (AE) information was collected from each subject.

`CCOC(=O)C(COC(=O)Cc1ccc(NC(=O)c2ccccc2-c2ccc(C(F)(F)F)cc2)c(C(=O)N(C)C)c1)(C(=O)OCC)c1ccccc1` [compound of formula (I), diethyl 2-((2-(3-(dimethylcarbamoyl)-4-(4′-(trifiuoromethyl)biphenyl-2-ylcarboxamido)phenyl)acetoxy)methyl)-2-phenyl malonate]: in data set [1], the “Cmin of the compound of formula (I)” value is “below the lower limit of quantization”. Moreover, the “caloric intake, meal weight consumed, VAS of hunger, prospective consumption, fullness, thirst, nausea” value in data set [2] is “no statistically significant treatment differences”. The “mean changes from baseline in weight” value in data set [3] (1 mg BID) is -0.31 kg; in data set [3] (2.5 mg BID), -0.68 kg; in data set [3] (3.5 mg BID), -1.39 kg. Moreover, the average weight loss in data set [3] (1 mg BID, 14 days) is 0.31 kg; in data set [3] (2.5 mg BID, 14 days), 0.68 kg; in data set [3] (3.5 mg BID, 14 days) it was 1.39 kg; in data set [3] (5 mg BID, 14 days) it was 2.07 kg; in data set [3] (5 mg BID, Day 10 (n=9)), 2.32 kg. Also, in data set [3] (5 mg dose group), the “subjects who withdrew due to GI-related adverse events prior to Day 14” value is reported as “six”. Also, the “tolerability at 5 mg BID” value in data set [3] (obese subjects) is listed as “not at 5 mg BID”. The well tolerated doses entry in data set [3] (obese subjects) is on record as “up to 3.5 mg BID”. In addition, the “subjects with adverse events (incidence)” value in data set [4] (1 mg BID) was 66.7%; in data set [4] (2 mg BID) it was 50.0%; in data set [4] (active group, 12 subjects) it was 58.3%. The “fat-soluble vitamins (vitamin A, 25-OH vitamin D, and vitamin E)” value in data set [4] (1 and 2 mg BID) was “no decrease”. Further, in data set [4] (1 and 2 mg BID), the “severity of all adverse events” value is recorded as “mild”. In addition, the “death or serious adverse events” value in data set [4] (1 or 2 mg BID tablets, 14 days) was “No death or other serious adverse events occurred”. The incidence of diarrhea in data set [4] (overall compound group) was 25.0%. Moreover, the “incidence of gastrointestinal disorders (SOC)” value in data set [4] (overall compound group) is 41.7%. Further, the “incidence of investigations (SOC)” value in data set [4] (overall compound group) is 33.3%. The “incidence of loose stools” value in data set [4] (overall compound group) stood at 25.0%. Besides, the tolerable dose result in data set [4] (twice daily for 14 days, tablets) is “up to 2 mg”.
